Reference: patent US20100047762A1, “METHOD TO MONITOR DRUG EFFICACY IN DIABETIC PATIENTS USING AN ASSAY FOR 1,5-ANHYDRO-D-GLUCITOL” (NIPPON KAYAKU KABUSHIKI KAISHA, priority 2007, published 2010)

Key:
[1] = test system: patients with type I diabetes (T1DM); test: Post-hoc analysis of randomized, double-blind, placebo-controlled study of pramlintide in T1DM subjects on intensive insulin therapy (baseline HbA1c≦8%); assay type: in vivo, human
Description: 1,5-AG was assessed as a marker of post-prandial blood glucose (PPG) control in pramlintide-treated patients with type I diabetes (TIDM). PPG is the glucose that appears in the blood stream and tissues after a meal. PPG predominates in the serum over average fasting glucose at HbA1c's less than 8.5%. Antihyperglycemic drugs affect PPG.
Post-hoc analysis of a randomized, double-blind, placebo-controlled study of a subset of subjects with T1DM on intensive insulin therapy with a baseline HbA1c≦8% (N=37, age 40±12 y; HbA1c 7.5±0.3%; weight 85.9±20.8 kg; mean±SD) treated with pramlintide (30/60 μg) or placebo with major meals.
• HbA1c, weight, and insulin dose measured at scheduled visits • Pre-prandial and post-prandial self-monitored blood glucose (SMBG) daily • Plasma 1,5-AG (GlycoMark assay) measured at baseline and week 29
• All evaluable subjects with a baseline HbA1c≦8% and 1,5-AG measured at baseline and week 29 • Mean (±SE) change from baseline HbA1c, body weight, PPG, insulin use and 1,5-AG at week 29 • A repeated measures analysis across all study visits was performed comparing pramlintide and placebo groups

[2] = following a meal; cited from earlier work

In the case of `CC[C@H](C)[C@H](NC(=O)[C@@H]1CCCN1C(=O)CNC(=O)[C@H](Cc1ccccc1)NC(=O)[C@H](CC(N)=O)NC(=O)[C@H](CC(N)=O)NC(=O)[C@H](CO)NC(=O)[C@H](CO)NC(=O)[C@H](Cc1c[nH]cn1)NC(=O)[C@@H](NC(=O)[C@H](CC(C)C)NC(=O)[C@H](Cc1ccccc1)NC(=O)[C@H](CC(N)=O)NC(=O)[C@H](C)NC(=O)[C@H](CC(C)C)NC(=O)[C@H](CCCNC(=N)N)NC(=O)[C@H](CCC(N)=O)NC(=O)[C@@H](NC(=O)[C@H](C)NC(=O)[C@@H]1CSSC[C@H](NC(=O)[C@@H](N)CCCCN)C(=O)N[C@@H](CC(N)=O)C(=O)N[C@@H]([C@@H](C)O)C(=O)N[C@@H](C)C(=O)N[C@@H]([C@@H](C)O)C(=O)N1)[C@@H](C)O)C(C)C)C(=O)N[C@@H](CC(C)C)C(=O)N1CCC[C@H]1C(=O)N1CCC[C@H]1C(=O)N[C@H](C(=O)N[C@@H](CC(N)=O)C(=O)N[C@H](C(=O)NCC(=O)N[C@@H](CO)C(=O)N[C@@H](CC(N)=O)C(=O)N[C@H](C(=O)N[C@@H](Cc1ccc(O)cc1)C(N)=O)[C@@H](C)O)C(C)C)[C@@H](C)O` [Pramlintide, L-Lysyl-L-cysteinyl-L-asparaginyl-L-threonyl-L-alanyl-L-threonyl-L-cysteinyl-L-alanyl-L-threonyl-L-glutaminyl-L-arginyl-L-leucyl-L-alanyl-L-asparaginyl-L-phenylalanyl-L-leucyl-L-valyl-L-histidyl-L-seryl-L-seryl-L-asparaginyl-L-phenylalanyl-glycyl-L-protyl-L-isoleucyl-L-leucyl-L-protyl-L-threonyl-L-asparaginyl-L-valyl-L-glycyl-L-seryl-L-prollneamylin (human) acetate hydrate], the “Body Weight, % Change from baseline” value ([1]; 4 weeks) is reported as −0.7%, the “Body Weight, Mean” value ([1]; 4 weeks) is reported as 84.2 kg and the “HbA1c, % Change from baseline” value ([1]; 4 weeks) is reported as −7.4%. The “PPG, % Change from baseline” value ([1]; 4 weeks) was −18.9%, the “PPG, Mean” value ([1]; 4 weeks) was 143 mg/dL and the “HbA1c, Mean” value ([1]; 4 weeks, n = 18) was 7.0%. For the same compound, the “Plasma 1,5-AG, % Change from baseline” value ([1]; 4 weeks, pramlintide 30/60 μg with major meals) was 15.9%, the Plasma 1,5-AG, Mean ([1]; 4 weeks, pramlintide 30/60 μg with major meals, n = 18) was 6.4 µg/mL and the “Body Weight, % Change from baseline” value ([1]; 16 weeks) was −2.8%. For the same compound, the “Body Weight, Mean” value ([1]; 16 weeks) was 82.5 kg, the “HbA1c, % Change from baseline” value ([1]; 16 weeks) was −7.0% and the “PPG, % Change from baseline” value ([1]; 16 weeks) was −16.8%. For the same compound, the “PPG, Mean” value ([1]; 16 weeks) was 145 mg/dL, the “Plasma 1,5-AG, % Change from baseline” value ([1]; 16 weeks) was 23.4% and the “HbA1c, Mean” value ([1]; 16 weeks, n = 16) was 7.2%. The Plasma 1,5-AG, Mean ([1]; 16 weeks, n = 17) was 7 µg/mL, the “Body Weight, % Change from baseline” value ([1]; 29 weeks) was −2.2% and the “Body Weight, Mean” value ([1]; 29 weeks) was 83.0 kg. For the same compound, the “HbA1c, % Change from baseline” value ([1]; 29 weeks) was −4.5%, the “PPG, % Change from baseline” value ([1]; 29 weeks) was −27.2% and the “PPG, Mean” value ([1]; 29 weeks) was 135 mg/dL. For the same compound, the “Plasma 1,5-AG, % Change from baseline” value ([1]; 29 weeks) was 29.8%, the “most common adverse event associated with pramlintide use” value ([1]; 29 weeks of treatment) was “mild to moderate nausea” and the “HbA1c, Mean” value ([1]; 29 weeks, n = 18) was 7.4%. For the same compound, the Plasma 1,5-AG, Mean ([1]; 29 weeks, n = 18) was 6.9 µg/mL, the “fasting plasma 1,5-AG levels, relative change from baseline” value ([1]; baseline to wk 29, mean±SE, P<0.01 vs placebo) was “+30±16%” and the “fasting plasma 1,5-AG levels, absolute change from baseline” value ([1]; baseline to wk 29, mean±SE, P<0.05 vs placebo) was “+0.96±0.91 μg/mL”. For the same compound, the mealtime insulin use ([1]; week 29, pramlintide-treated subjects) was “significantly decreased”, the “2 hr PPG excursions, change from baseline” value ([1]; week 29, n=18, mean±SE, P<0.001 vs placebo) was -43.9 ± 10.9 mg/dL and the “body weight, change from baseline” value ([1]; week 29, n=18, mean±SE, P<0.01 vs placebo) was -2.0 ± 1.2 kg. The “HbA1c, change from baseline” value ([1]; week 29, n=18, mean±SE, similar to placebo) was −0.18±0.31% and the “duration of the slowing of gastric emptying following Pramlintide administration” value [2] was “approximately 3 hours”.
